Measured values from a melting point compilation (Tetko et al.; mined from patent text by program, amines drawn as free bases though some values may be those of a salt).

First: COC(=O)c1ccc(CN2CCOc3cc4c(cc32)C(C)(C)CCC4(C)C)cc1
Second: COC(=O)c1ccc(NC(=O)c2sc3ccc(OC)cc3c2Cl)cc1
The melting point of the first is lower: 187 °C for the first, 205 to 206 °C for the second.

Compared with `Cc1cc(C)n(C)c1C(=O)c1ccc(Cl)cc1`, `N#Cc1c(Br)c(Br)n(C(=O)c2ccc(Cl)cc2)c1Br` is higher in melting point: 94 to 98 °C for the first, 154 to 157 °C for the second.

First: CCC(=O)C(CC)=NNc1ccccc1[N+](=O)[O-]
Second: COC=C(C(=O)OC)c1cccc([N+](=O)[O-])c1
The melting point of the first is lower: 96 to 97 °C for the first, 101 to 103 °C for the second.

First: CCc1cc(=O)c2cc(C(C)C(=O)O)ccc2o1 (stereo not given)
Second: CC(C)(C)NCC(O)COc1ccc2oc(-c3ccc(O)c(O)c3)cc(=O)c2c1 (stereo not given)
The melting point of the first is lower: 128 °C for the first, 193 °C for the second.

Compared with `CCNC(=O)n1ccc2ccccc21`, `O=C1NC(=O)C(Cc2ccc(OCCn3ccc4ccccc43)cc2)S1` (stereo not given) is lower in melting point: 71 to 73 °C for the first, 42.3 to 44.6 °C for the second.

Compared with `CC(C)CN1CN(C)CN(c2c(Cl)cccc2Cl)C1=S`, `COC(=O)N[C@H]1CC[C@H](CCN2CCN(c3cccc(Cl)c3Cl)CC2)CC1` is higher in melting point: 133 to 135 °C for the first, 143 to 147 °C for the second.

First: Cc1ccc(CSc2nc3cscc3n2C(=O)OCc2ccccc2)nc1
Second: CNC(=O)C(CCn1c(COc2ccc(Cl)cc2)nc2c(C)cccc21)Cc1ccccc1 (stereo not given)
The melting point of the first is lower: 103 to 104 °C for the first, 169 to 170 °C for the second.

First: COC(=O)c1ccccc1S(=O)(=O)NC(=O)Nc1nc(C)cc(CO)n1
Second: Cc1cc(C)nc(NC(=O)NS(=O)(=O)c2ccccc2C(=O)N(C)C)n1
The melting point of the first is lower: 140 to 141 °C for the first, 166 to 168 °C for the second.

First: CCCN(c1ccc(C(F)(F)F)cc1)c1nc(=O)c2cccnc2s1
Second: COc1cc(-c2nc(=O)c3ccccc3s2)ccn1
The melting point of the first is higher: 216 to 217 °C for the first, 149 to 150 °C for the second.

`CC(C)(C)NC(=O)N(Cc1ccccc1)CC(O)C(Cc1ccccc1)NC(=O)C(CC(N)=O)NC(=O)NCc1ccccc1` (stereo not given) and `O=C(Nc1ccccc1OC(=O)c1ccccc1)c1cc(Cl)c(OC(=O)c2ccccc2)c(Cl)c1` cannot be ordered by melting point: 156 to 158 °C for the first, 157 to 160 °C for the second.

First: CC12C=CC(=O)C=C1C(F)CC1C2=CCC2(C)C(C(=O)CCl)=CCC12 (stereo not given)
Second: COc1ccc2c(c1)CCN(C(=O)Cc1ccc([N+](=O)[O-])cc1)C2C (stereo not given)
The melting point of the first is higher: 196 to 200 °C for the first, 112 to 114 °C for the second.

First: Cc1ccc(C)c(CN2CCN(C)CC(NC(=O)c3n[nH]c4ccccc34)C2)c1 (stereo not given)
Second: COc1ccccc1NC(=O)C(C)(C)CCCOc1cc(C)ccc1C
The melting point of the first is higher: 168 to 170 °C for the first, 47 to 48 °C for the second.

First: Cc1nnc2n1-c1ccc(C#C[Si](C)(C)C)cc1C(c1ccccc1F)=NC2
Second: c1ccc(-c2cc3nc(N4CCOCC4)c4ccccc4c3nn2)cc1
The melting point of the first is higher: 218 to 219 °C for the first, 214 to 216 °C for the second.

Compared with `COc1nc(N)nc2oc(C)cc12`, `Cc1cc(-c2c(C)ccc(C(=S)OC(C)(C)C)c2C)on1` is lower in melting point: 173 to 175 °C for the first, 102 to 103 °C for the second.

Going from `CN(C)CCCn1c(-c2ccccc2)cc2cc(O)ccc21` to `Cn1c(/C=C/C=O)c(-c2ccccc2)c2ccccc2c1=O`, the melting point rises from 130 °C to 228 °C.

First: CSc1ccc(C=CC(=O)c2cccc(Br)c2)cc1
Second: CC1CC(C)CN(Cc2ccc(C=CC(=O)Nc3ccc(-c4ccc(Cl)cc4)cc3)cc2)C1 (stereo not given)
The melting point of the first is lower: 148 °C for the first, 217 to 218 °C for the second.

First: N#Cc1ncc(NCCO)nc1Br
Second: CCC(=O)Nc1snc(N(CC)CC)c1C#N
The melting point of the first is lower: 158 to 160 °C for the first, 188 to 189 °C for the second.

First: COC(=O)c1nn(S(=O)(=O)c2ccc(C)cc2)c2ccccc12
Second: CCCc1nc(S(=O)(=O)Nc2c(F)cccc2F)nn1-c1ccccc1
The melting point of the first is higher: 163 to 165 °C for the first, 148 to 150 °C for the second.

First: CCc1nc2c(N)nc3cc(CCCNC(=O)NC(C)C)ccc3c2n1CC1CCOCC1
Second: CCOc1ccc2c(c1)n(C1CCCC1)c(=O)n2Cc1ccc(NC(=O)N(CC)CC)cc1OC
The melting point of the first is higher: 213 to 216 °C for the first, 140 °C for the second.

First: Cc1c(NC(=O)c2ccc(-c3ccc(Cl)cc3)cc2)ccc2cc(CN3CCCC3)cnc12
Second: COc1ccc2c(c1)c(CC(=O)O)c(C)n2-c1ccnc2cc(Cl)ccc12
The melting point of the first is lower: 227 to 229 °C for the first, 248 to 250 °C for the second.

First: Cn1c(=O)c(=O)[nH]c2cc(Cl)ccc21
Second: CC(=O)c1cn(C)c2ccc(F)cc12
The melting point of the first is higher: 342 °C for the first, 158 to 160 °C for the second.

First: CC(CO)C1CCC2C3CC=C4CC(O)CC(O)C4(C)C3CCC12C (stereo not given)
Second: Nc1c(N=O)c(=O)n(CC2CCCCCC2)c(=O)n1CC1CCCCCC1
The melting point of the first is lower: 205 to 207 °C for the first, greater than 250 °C for the second.

Compared with `CC1OC(n2c(Br)nc3cc(Cl)c(Cl)cc32)C(O)C1O` (stereo not given), `CCn1cc(C(=O)O)c(=O)c2cc(F)c(N3C[C@@H](N)[C@@H]3C)cc21` (relative stereo) is higher in melting point: 85 to 86 °C for the first, 232 to 235 °C for the second.

First: CC(C)(C)OC(=O)NCCCCNC1(c2ccccc2Cl)C(=O)Nc2ccc(Cl)cc21 (stereo not given)
Second: O=C(C=C1SC(Nc2c(Cl)cccc2Cl)=NC1=O)NCc1ccccc1
The melting point of the first is lower: 175 to 176 °C for the first, 205 to 206 °C for the second.

First: O=P(Cc1ccc2ccccc2c1-c1c(CP(=O)(c2ccc(F)cc2)c2ccc(F)cc2)ccc2ccccc12)(c1ccc(F)cc1)c1ccc(F)cc1
Second: CC(=O)OCc1nn(-c2ccc(F)cc2)c2c1CCCC2Cc1cccc2ccccc12 (stereo not given)
The melting point of the first is higher: 211 to 214 °C for the first, 142 to 144 °C for the second.

Compared with `COC(=O)c1cncc(OC)n1`, `CCOC(=O)C1SCCc2cc(OC)c(OC)cc21` (stereo not given) is higher in melting point: 73 °C for the first, 96 to 98 °C for the second.

First: COc1ccc(-c2cc(C#N)c3cc(O)ccc3c2)cc1F
Second: COc1ccc(-c2cc3ccc(OC)cc3s2)cc1
The melting point of the first is higher: 214 to 216 °C for the first, 193 to 194 °C for the second.

First: CC(=O)Nc1ccc(C(C)=O)c2c1OCCO2
Second: CC(C)(C)C(=O)c1ccc(C2(C)OCCO2)cc1
The melting point of the first is higher: 142 to 144 °C for the first, 75 to 82 °C for the second.

First: CN1CCN(c2nc(N)c3c(n2)CCCS3)CC1
Second: c1c(C(CN2CCNCC2)N2CCNCC2)nc(N2CCCC2)nc1N1CCCC1 (stereo not given)
The melting point of the first is lower: 140 to 141 °C for the first, 148 to 149 °C for the second.

Going from `CC1SC(c2cccnc2)N(c2ccccc2F)C1=O` (stereo not given) to `CCC1(CC)CSc2ccccc2N(c2ccccc2)C1=O`, the melting point falls from 112 °C to 86.4 °C.

First: COc1ccc(S(=O)(=O)n2c(=O)n(-c3cccc(Cl)c3)c3cc(Cl)ccc32)c(OC)c1
Second: COc1cc2c3c4c(c(-c5ccccc5Cl)cc3n(C)c2cc1OCc1ccccc1)C(=O)NC4=O
The melting point of the first is lower: 173 °C for the first, 282 to 285 °C for the second.

Compared with `CC(C)(C)OC(=O)NOC(=O)OC(C)(C)C`, `CC(C)(C)c1nc(C(=O)c2nccs2)nc(C(C)(C)C)c1O` is higher in melting point: 52 °C for the first, 181 to 184 °C for the second.

First: CCOCc1nc(N)c(N)c(=O)[nH]1
Second: CCOC(=O)C(=CC=C1CCc2ccccc2C1=O)N(C)C
The melting point of the first is higher: 173 to 175 °C for the first, 123 °C for the second.

First: CC(C)CC(CO)NC(=O)c1ccccc1SSc1ccccc1C(=O)NC(CO)CC(C)C (stereo not given)
Second: COC(=O)C1=C(COCCn2c(C)nc(C)c2C)NC(C)=C(C(=O)Nc2ccccc2)C1c1ccccc1Cl (stereo not given)
The melting point of the first is higher: 195 to 196 °C for the first, 135 to 140 °C for the second.

Compared with `CC(=O)OC1CSC(Oc2cc(-c3cncnc3)cnc2Cl)C(OC(C)=O)C1OC(C)=O` (stereo not given), `COc1cc(OC)c2c(c1OC)CCC(C(=O)Cc1cccc(F)c1)C2C#N` (stereo not given) is lower in melting point: 72 to 90 °C for the first, 58 to 62 °C for the second.

First: O=c1cc(-c2ccc(O)c(-c3cccs3)c2)oc2ncccc12
Second: O=c1c2cc(CBr)ccc2oc2ncccc12
The melting point of the first is higher: 274 to 275 °C for the first, 211 to 212 °C for the second.

`COc1ccc(CCN(C)CCCC(C#N)(C(=O)OC(C)C)c2ccc(OC)c(OC)c2)cc1OC` (stereo not given) and `CC#CCOc1ccc(S(=O)(=O)N(C)C(C(=O)NO)C(C)(C)SCC(C)N(CC)CC)cc1` (stereo not given) cannot be ordered by melting point: 66 to 67 °C for the first, 65 to 68 °C for the second.

Compared with `Nc1nc2c(c(Nc3ccc(Br)cc3)n1)-c1ccccc1C2`, `Clc1ccnc(Nc2ccccc2)n1` is lower in melting point: 214 to 215 °C for the first, 134 to 135 °C for the second.

Compared with `CCOC(=O)C1(Oc2ccc(O)cc2)CCC1`, `COc1ccc(S(=O)(=O)CC(CS(=O)(=O)c2ccc(OC)cc2)C(=O)O)cc1` is higher in melting point: 118 to 120 °C for the first, 174 to 175 °C for the second.

First: O=C1O[C@](CCc2cccc(O)c2)(C2CCCC2)CC(O)=C1N(c1ccccc1)c1ccccc1
Second: O=C(Cc1ccnc2c1NC(=O)c1cccnc1N2C1CC1)c1ccccc1
The melting point of the first is lower: 90 to 92 °C for the first, 195 to 197 °C for the second.

First: Cc1nnc(-c2nsc3ccc([N+](=O)[O-])cc23)s1
Second: CCN(c1ccc(C)c2cc(-c3ncc(CCl)s3)[nH]c12)S(=O)(=O)c1cccs1
The melting point of the first is higher: 239 to 240 °C for the first, 177 to 178 °C for the second.

First: CSc1nc2ccnn2c2ncccc12
Second: Cc1cccc(CSc2nc3cnccc3[nH]2)c1
The melting point of the first is higher: 192 °C for the first, 166 to 168 °C for the second.

First: COCCOc1cc(N(C)S(=O)(=O)c2ccccn2)c2[nH]c(C3=NCC(CN4CCS(=O)(=O)CC4)S3)cc2c1 (stereo not given)
Second: COc1cccc(CNC(=O)c2nc3scc(COCc4ccc(C(=O)O)cc4)c3c(=O)[nH]2)c1
The melting point of the first is lower: 115 °C for the first, 229 to 230 °C for the second.

First: O=C(NCCCCCCOC(=O)Oc1ccc([N+](=O)[O-])cc1)Oc1ccc(Oc2ccccc2)cc1
Second: c1ccc2nc(COc3ccc4[nH]ccc4c3)ccc2c1
The melting point of the first is lower: 102 to 104 °C for the first, 134 to 137 °C for the second.

First: O=C1NCn2c3ccccc3c(=O)c3cccc1c32
Second: CC1=NC(c2ccccc2)c2c(cc[nH]c2=O)N1 (stereo not given)
The melting point of the first is lower: 250 to 255 °C for the first, 263 to 264 °C for the second.

Compared with `COc1nc(C)nc(NC(=O)NS(=O)(=O)C(C)S(=O)(=O)N2CCCC2)n1` (stereo not given), `CCOC(=O)N1C(=S)NC(C)=C(C(=O)OC(C)C)C1c1cccc([N+](=O)[O-])c1` (single isomer, unassigned; (-)) is lower in melting point: 136 to 137 °C for the first, 120 to 122 °C for the second.

First: COc1ccc(N(CCCC(O)CO)S(=O)(=O)c2c(F)c(F)c(F)c(F)c2F)cc1 (stereo not given)
Second: O=C(O)C1=Cc2cc(Cl)c(Oc3ccc(C(F)(F)F)cc3)cc2OC1C(F)(F)F (stereo not given)
The melting point of the first is lower: 116 to 118 °C for the first, 231 to 232 °C for the second.

First: Cc1ccc(S(=O)(=O)Nc2c(C)c(C)c3c(c2C)CC(C)(C)O3)cc1
Second: CC(C)NC1CCn2c(CCc3ccccc3)nc3cccc1c32 (stereo not given)
The melting point of the first is higher: 219 to 220 °C for the first, 95.5 to 97.7 °C for the second.

Compared with `O=C(NCCCc1ccncc1)N1CCc2ccccc2C1`, `O=C1CC(NC(=O)C2CCCN3C(=O)CCC(NC(=O)c4ccccc4)C(=O)N23)C(OC2Cc3ccccc3C2)O1` (stereo not given) is higher in melting point: 76 to 79 °C for the first, 140 °C for the second.

Compared with `C/C(=N\O)C(=O)c1ccc(F)cc1F`, `CCC(OC)C1(OC)OC12CO2` (stereo not given) is lower in melting point: 99 to 101 °C for the first, 68 to 70 °C for the second.
